Where two headings read alike, the source gives them in different places. Bounds are passed on as bounds.

Broadly, the IC50 is the concentration at which inhibition is half-maximal.

The target in assay [1] is T1, hERG (Homo sapiens, UniProt Q12809).
T1 construct: host or cells: crude membrane suspension
Put plainly: hERG binding assay ([3H] dofetilide displacement). The note with it: dofetilide displacement; read-out: HERGdof IC50. The method, boiled down:
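Displacement of 2.5 nM [3H]dofetilide from crude hERG membranes (ca. 15 μg protein) by filtration binding, 90 min at room temperature, 0.5% DMSO final. Non-specific binding defined with 25 μM terfenadine; compounds run as 9-point duplicate curves from 30 μM to 3 nM.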
A general note: Block of hERG is tested as a sign of cardiac risk.

In assay [2] the target is FGFR3 kinase (Homo sapiens, UniProt P22607). Put plainly: FGFR3 kinase inhibition assay (LanthaScreen TR-FRET). Format: biochemical. As to the method:
FGFR3 Kinase Inhibition Assay
(§1) LanthaScreen™ is the detection of Time-Resolved Fluorescence Resonance Energy Transfer (TR-FRET) using lanthanide chelates to measure interactions between various binding partners. The application of TR-FRET to assay kinase activity was first described by Mathis (1995). A TR-FRET assay was used to measure FGFR3 kinase inhibitory activity. The assay panel was run on a Biomek FX liquid handling workstations. To the assay plates containing 50 mL compound or control solutions, 4.5 μL of buffer A (50 mM TRIS-HCl pH 7.4, 2 mM DTT, 0.02% Tween 20, 0.02 mM Na3VO4, H2O nanpure) including a generic concentration of ATP (2 μM f.c.) was added per well, followed by 4.5 μL of buffer B (4 uM ATP in Buffer A) including a generic concentration of polyEAY (50 nM f.c.), FGFR3 kinase, and divalent cations. Final concentration of kinase and cations were: [FGFR3 kinase]=0.20 nM, [Mg]=3 mM, [Mn]=3 mM. After 1 hour of incubation the kinase reactions were stopped by the addition of 4.5 μL of stop solution D (50 mM EDTA, 20 mM TRIS-HCl pH 7.4, 0.04% NP-40) immediately followed by 4.5 μL of buffer A (50 mM TRIS-HCl pH 7.4, 2 mM DTT, 0.02% Tween 20, 0.02 mM Na3VO4, H2O nanpure) including the Tb-labeled P-20 antibody to give a total detection volume of 18 μL. After an incubation time of 45 min in the dark, the plates were transferred into the Pherastar fluorescence reader for counting. The effect of compound on the enzymatic activity was obtained from the linear progress curves and determined from one reading (end point measurement).
Background: Time-resolved FRET reads energy transfer from a long-lived donor to a nearby acceptor.

Assay [3] has as its target cABLT315 kinase (Homo sapiens, UniProt P00519). Put plainly: cABLT315 kinase Caliper assay. Format: biochemical. The protocol: PKCα and cABLT315 Kinase Caliper Assays
Assays were performed in 384 well microtiter plates. Each assay plate contained 8-point serial dilutions for test compounds, as well as two 16-point serial dilutions of staurosporine as reference compound, plus 16 high- and 16 low controls. Liquid handling and incubation steps were done on a Thermo CatX workstation equipped with a Innovadyne Nanodrop Express. Between pipetting steps, tips were cleaned in wash cycles using wash buffer. Plates with terminated kinase reactions were transferred to the Caliper LC3000 workstations for reading. Phosphorylated and unphosphorylated peptides were separated using the Caliper microfluidic mobilitishift technology and Kinase activities were calculated from the amounts of formed phospho-peptide.
Kinase reactions were prepared in 384 low volume plates by the following sequence:
1. 0.05 μA Compound (start with 1.8 mM in 90% DMSO/10% H2O)
2. +4.5 μl 2× peptide/ATP solution
3. +4.5 μl 2× enzyme solution
4. Incubate for 60 min at 30° C.
4. +16 μl stop/run buffer
Independent of the kinase, all reactions were done performed in 50 mM HEPES, pH 7.5, 1 mM DTT, 0.02% Tween20, 0.02% BSA, and 0.6% DMSO. For cABLT315 assay specific details were as follows: [cABLT315 kinase]=2.4 nM, [ATP]=10 uM, [peptide]=2 uM, [Mg]=10 mM. For PKCα, assay specific details were as follows: [kinase]=0.012 nM, [ATP]=17 uM, [peptide]=1 uM, [Mg]=7 mM, [Ca]=0.2 mM.

Assay [4] deals with KDR kinase (Homo sapiens, UniProt P35968). The experiment in a line: KDR kinase inhibition assay (LanthaScreen TR-FRET). It counts as biochemical. The note with it: TR-FRET assay. As to the method:
KDR Kinase Inhibition Assay
as §1, with “KDR” for “FGFR3”, “nL” for “mL”, “[KDR kinase]=0.38” for “[FGFR3 kinase]=0.20”, “[Mg]=10” for “[Mg]=3”, “[Ca]=1” for “[Mn]=3”

Sequence of KDR kinase (P35968 20-1356): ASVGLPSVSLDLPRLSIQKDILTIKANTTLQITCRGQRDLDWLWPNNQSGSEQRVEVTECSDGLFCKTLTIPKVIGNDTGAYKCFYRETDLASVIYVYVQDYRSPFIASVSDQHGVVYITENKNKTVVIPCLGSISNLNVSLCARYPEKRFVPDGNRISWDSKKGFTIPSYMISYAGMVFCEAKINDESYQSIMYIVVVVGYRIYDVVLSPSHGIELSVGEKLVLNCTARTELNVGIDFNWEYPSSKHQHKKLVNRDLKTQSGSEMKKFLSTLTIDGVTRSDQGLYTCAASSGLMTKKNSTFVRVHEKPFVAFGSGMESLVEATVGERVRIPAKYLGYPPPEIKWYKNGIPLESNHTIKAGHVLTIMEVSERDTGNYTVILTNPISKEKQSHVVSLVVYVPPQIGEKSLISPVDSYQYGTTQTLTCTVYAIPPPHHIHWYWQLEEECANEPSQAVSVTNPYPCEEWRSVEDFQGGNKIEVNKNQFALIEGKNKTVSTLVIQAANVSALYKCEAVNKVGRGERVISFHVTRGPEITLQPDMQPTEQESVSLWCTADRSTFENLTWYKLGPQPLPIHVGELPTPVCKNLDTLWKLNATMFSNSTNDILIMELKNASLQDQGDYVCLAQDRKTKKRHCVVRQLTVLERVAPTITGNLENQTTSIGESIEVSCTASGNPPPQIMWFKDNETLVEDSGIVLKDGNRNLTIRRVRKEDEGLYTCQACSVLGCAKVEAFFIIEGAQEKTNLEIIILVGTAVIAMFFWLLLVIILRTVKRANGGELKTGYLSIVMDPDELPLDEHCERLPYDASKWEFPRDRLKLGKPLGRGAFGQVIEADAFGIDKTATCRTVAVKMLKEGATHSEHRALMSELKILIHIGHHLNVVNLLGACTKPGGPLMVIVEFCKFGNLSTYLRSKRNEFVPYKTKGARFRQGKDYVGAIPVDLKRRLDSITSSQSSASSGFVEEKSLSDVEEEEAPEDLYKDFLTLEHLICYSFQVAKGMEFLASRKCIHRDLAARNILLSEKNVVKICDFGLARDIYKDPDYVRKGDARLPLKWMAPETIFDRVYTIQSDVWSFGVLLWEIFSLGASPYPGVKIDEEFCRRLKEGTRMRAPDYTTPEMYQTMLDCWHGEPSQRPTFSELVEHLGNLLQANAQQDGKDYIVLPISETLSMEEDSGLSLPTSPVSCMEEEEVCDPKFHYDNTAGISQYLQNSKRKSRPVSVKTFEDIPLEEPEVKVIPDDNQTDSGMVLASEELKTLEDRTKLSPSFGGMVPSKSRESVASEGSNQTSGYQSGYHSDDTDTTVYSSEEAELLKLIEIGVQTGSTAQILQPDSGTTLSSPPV
Sequence of FGFR3 kinase (P22607 23-806): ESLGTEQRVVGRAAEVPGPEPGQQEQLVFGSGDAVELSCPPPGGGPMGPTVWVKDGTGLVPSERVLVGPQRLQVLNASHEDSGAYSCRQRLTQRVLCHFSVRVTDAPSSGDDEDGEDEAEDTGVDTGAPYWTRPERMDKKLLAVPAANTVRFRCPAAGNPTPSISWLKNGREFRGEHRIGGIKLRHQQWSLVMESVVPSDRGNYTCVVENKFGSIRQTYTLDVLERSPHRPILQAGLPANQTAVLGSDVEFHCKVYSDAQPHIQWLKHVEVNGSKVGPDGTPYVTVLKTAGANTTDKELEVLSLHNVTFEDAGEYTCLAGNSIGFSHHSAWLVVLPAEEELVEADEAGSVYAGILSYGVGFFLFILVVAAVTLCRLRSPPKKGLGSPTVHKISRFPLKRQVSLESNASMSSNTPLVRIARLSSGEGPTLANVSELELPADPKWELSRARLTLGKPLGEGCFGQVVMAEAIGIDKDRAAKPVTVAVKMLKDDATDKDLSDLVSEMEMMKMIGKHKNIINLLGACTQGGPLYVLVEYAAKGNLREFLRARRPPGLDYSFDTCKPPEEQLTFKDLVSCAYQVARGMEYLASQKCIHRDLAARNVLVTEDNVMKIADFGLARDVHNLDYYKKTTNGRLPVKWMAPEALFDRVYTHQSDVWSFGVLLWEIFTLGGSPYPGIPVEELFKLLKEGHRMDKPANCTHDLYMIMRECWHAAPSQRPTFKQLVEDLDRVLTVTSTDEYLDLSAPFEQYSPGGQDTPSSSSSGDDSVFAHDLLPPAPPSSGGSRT
T1 sequence (Q12809 whole entry): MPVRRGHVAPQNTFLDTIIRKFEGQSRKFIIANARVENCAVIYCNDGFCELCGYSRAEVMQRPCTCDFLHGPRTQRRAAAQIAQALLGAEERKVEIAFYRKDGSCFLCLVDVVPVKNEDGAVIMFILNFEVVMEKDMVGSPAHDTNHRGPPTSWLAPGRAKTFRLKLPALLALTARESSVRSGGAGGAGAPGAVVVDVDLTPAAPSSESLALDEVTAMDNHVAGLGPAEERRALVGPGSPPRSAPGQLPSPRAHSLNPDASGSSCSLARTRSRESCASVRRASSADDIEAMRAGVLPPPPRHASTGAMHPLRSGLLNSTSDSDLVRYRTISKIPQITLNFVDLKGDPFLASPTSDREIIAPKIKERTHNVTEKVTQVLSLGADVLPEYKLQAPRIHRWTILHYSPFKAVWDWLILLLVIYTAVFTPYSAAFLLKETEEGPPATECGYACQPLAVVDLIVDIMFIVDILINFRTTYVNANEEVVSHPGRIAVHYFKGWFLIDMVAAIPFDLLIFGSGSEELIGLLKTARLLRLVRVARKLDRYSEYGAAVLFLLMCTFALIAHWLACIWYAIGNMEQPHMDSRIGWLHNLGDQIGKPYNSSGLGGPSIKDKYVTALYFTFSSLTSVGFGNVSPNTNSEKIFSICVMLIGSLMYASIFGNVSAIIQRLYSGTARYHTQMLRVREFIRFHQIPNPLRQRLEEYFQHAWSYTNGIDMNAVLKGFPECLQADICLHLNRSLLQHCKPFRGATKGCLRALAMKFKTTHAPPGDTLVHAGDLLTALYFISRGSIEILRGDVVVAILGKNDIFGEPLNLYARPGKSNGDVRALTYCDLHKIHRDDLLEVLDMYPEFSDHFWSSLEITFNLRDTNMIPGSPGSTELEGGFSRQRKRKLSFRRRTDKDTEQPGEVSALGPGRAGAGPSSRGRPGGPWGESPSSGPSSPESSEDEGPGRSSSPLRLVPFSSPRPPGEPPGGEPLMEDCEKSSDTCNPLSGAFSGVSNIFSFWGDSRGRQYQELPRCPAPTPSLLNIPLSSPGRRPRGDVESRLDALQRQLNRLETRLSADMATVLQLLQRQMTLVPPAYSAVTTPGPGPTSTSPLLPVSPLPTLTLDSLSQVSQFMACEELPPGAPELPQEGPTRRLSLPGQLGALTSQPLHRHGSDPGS

In the case of `CC[C@]1(O)[C@H](O)C[C@H](c2ccncc2NC(=O)c2nc(-c3c(F)cccc3F)ncc2N)O[C@@H]1C` [Example 143, 5-amino-2-(2,6-difluorophenyl)-N-(4-((2R,4R,5S,6R)-5-ethyl-4,5-dihydroxy-6-methyltetrahydro-2H-pyran-2-yl)pyridin-3-yl)pyrimidine-4-carboxamide], the IC50 in assay [1] was greater than 30000 nM; in assay [2], greater than 10000 nM; in assay [3], greater than 10000 nM.
As to `Nc1ncc(-c2ccccc2)nc1C(=O)Nc1cnccc1[C@H]1C[C@@H](O)[C@@]2(O)CCCC[C@H]2O1` [Example 173, 3-amino-N-(4-((2R,4R,4aS,8aR)-4,4a-dihydroxyoctahydro-2H-chromen-2-yl)pyridin-3-yl)-6-phenylpyrazine-2-carboxamide], the IC50 in assay [1] is greater than 30000 nM; in assay [2], 45 nM; in assay [3], 70 nM.
Consider `CC1(C)C[C@@H](N)C[C@H](c2ccncc2NC(=O)c2nc(-c3ccccc3)cnc2N)O1` [Example 296, 3-amino-N-(4-((2R,4S)-4-amino-6,6-dimethyltetrahydro-2H-pyran-2-yl)pyridin-3-yl)-6-phenylpyrazine-2-carboxamide], for which the results for the IC50 in assay [2] and in assay [3] (Caliper assay) were 200 nM and 110 nM, respectively.
As to `CC1(C)C[C@H](N)C[C@@H](c2ccncc2NC(=O)c2nc(-c3ccccc3)cnc2N)O1` [Example 297, 3-amino-N-(4-((2S,4R)-4-amino-6,6-dimethyltetrahydro-2H-pyran-2-yl)pyridin-3-yl)-6-phenylpyrazine-2-carboxamide], the IC50 in assay [2] was 1600 nM; in assay [3] (Caliper assay) it was 860 nM.
For `CC[C@@H]1O[C@H](c2ccncc2NC(=O)c2nc(-c3ccccc3)cnc2N)C[C@H](N)[C@H]1O` [Example 342, 3-amino-N-(4-((2S,4S,5R,6S)-4-amino-6-ethyl-5-hydroxytetrahydro-2H-pyran-2-yl)pyridin-3-yl)-6-phenylpyrazine-2-carboxamide], the IC50 in assay [2] came to 1600 nM; in assay [4], 510 nM.
For the compound `CC[C@H]1O[C@@H](c2ccncc2NC(=O)c2nc(-c3ccccc3)cnc2N)C[C@@H](N)[C@@H]1O` [Example 343, 3-amino-N-(4-((2R,4R,5S,6R)-4-amino-6-ethyl-5-hydroxytetrahydro-2H-pyran-2-yl)pyridin-3-yl)-6-phenylpyrazine-2-carboxamide], the IC50 in assay [2] worked out at 35 nM; in assay [4], 13 nM.
Taken in the same sequence, the figures for `C[C@]1(O)[C@H](N)C[C@H](c2ccncc2NC(=O)c2nc(-c3ccccc3)cnc2N)O[C@@H]1C1CC1` [Example 344, 3-amino-N-(4-((2R,4R,5S,6R)-4-amino-6-cyclopropyl-5-hydroxy-5-methyltetrahydro-2H-pyran-2-yl)pyridin-3-yl)-6-phenylpyrazine-2-carboxamide] were 440 nM and 58 nM.
Taken in the same sequence, the figures for `CC[C@@H]1O[C@H](c2ccncc2NC(=O)c2nc(-c3ccccc3)cnc2N)C[C@H](N)[C@@]1(C)O` [Example 345, 3-amino-N-(4-((2S,4S,5R,6S)-4-amino-6-ethyl-5-hydroxy-5-methyltetrahydro-2H-pyran-2-yl)pyridin-3-yl)-6-phenylpyrazine-2-carboxamide] were greater than 10000 nM and 4400 nM.
Taken in the same sequence, the figures for `Nc1ncc(-c2ccccc2)nc1C(=O)Nc1cnccc1[C@H]1C[C@@H](N)[C@H](O)[C@@H](C2CC2)O1` [Example 346, 3-amino-N-(4-((2R,4R,5S,6R)-4-amino-6-cyclopropyl-5-hydroxytetrahydro-2H-pyran-2-yl)pyridin-3-yl)-6-phenylpyrazine-2-carboxamide] were 180 nM and 28 nM.
For `C[C@@]1(O)[C@@H](N)C[C@@H](c2ccncc2NC(=O)c2nc(-c3ccccc3)cnc2N)O[C@H]1C1CC1` [Example 347, 3-amino-N-(4-((2S,4S,5R,6S)-4-amino-6-cyclopropyl-5-hydroxy-5-methyltetrahydro-2H-pyran-2-yl)pyridin-3-yl)-6-phenylpyrazine-2-carboxamide], the IC50 in assay [2] was 8800 nM; in assay [4], 3700 nM.
As to `CC[C@H]1O[C@@H](c2ccncc2NC(=O)c2nc(-c3ccccc3)cnc2N)C[C@@H](N)[C@]1(C)O` [Example 348, 3-amino-N-(4-((2R,4R,5S,6R)-4-amino-6-ethyl-5-hydroxy-5-methyltetrahydro-2H-pyran-2-yl)pyridin-3-yl)-6-phenylpyrazine-2-carboxamide], the IC50 in assay [2] is 420 nM; in assay [4], 150 nM.
For `Nc1ncc(-c2ccccc2)nc1C(=O)Nc1cnccc1[C@@H]1C[C@H](N)[C@@H](O)[C@H](C2CC2)O1` [Example 349, 3-amino-N-(4-((2S,4S,5R,6S)-4-amino-6-cyclopropyl-5-hydroxytetrahydro-2H-pyran-2-yl)pyridin-3-yl)-6-phenylpyrazine-2-carboxamide], in that order: 6900 nM and 2300 nM.
For `CC(C)(C)[C@H]1O[C@@H](c2ccncc2NC(=O)c2nc(-c3ccccc3)cnc2N)C[C@@H](N)[C@@H]1O` [Example 354, 3-amino-N-(4-((2R,4R,5S,6R)-4-amino-6-tert-butyl-5-hydroxytetrahydro-2H-pyran-2-yl)pyridin-3-yl)-6-phenylpyrazine-2-carboxamide], in that order: 870 nM and 62 nM.
Take `CC(C)(C)[C@@H]1O[C@H](c2ccncc2NC(=O)c2nc(-c3ccccc3)cnc2N)C[C@H](N)[C@H]1O` [Example 355, 3-amino-N-(4-((2S,4S,5R,6S)-4-amino-6-tert-butyl-5-hydroxytetrahydro-2H-pyran-2-yl)pyridin-3-yl)-6-phenylpyrazine-2-carboxamide]: the IC50 was greater than 10000 nM in assay [2] and 6400 nM in assay [4].
As for `CC(C)[C@H]1O[C@@H](c2ccncc2NC(=O)c2nc(-c3ccccc3)cnc2N)C[C@@H](N)[C@@H]1O` [Example 356, 3-amino-N-(4-((2R,4R,5S,6R)-4-amino-5-hydroxy-6-isopropyltetrahydro-2H-pyran-2-yl)pyridin-3-yl)-6-phenylpyrazine-2-carboxamide], the IC50 in assay [2] turned out to be 220 nM; in assay [4], 43 nM.

Values taken from patent publication US20130109682A1, “CYCLIC ETHER COMPOUNDS USEFUL AS KINASE INHIBITORS” (NOVARTIS AG, priority 2010, published 2013).
